# Experimental data published in ChEMBL document CHEMBL5465560, “Selectivity Literature for EUbOPEN Chemogenomic Library” (2024).
# Tests used:
# [1] = target: Death-associated protein kinase 1 (Homo sapiens, UniProt P53355); test: Selectivity interaction (KinomeScan (DiscoverX)) EUB0001049a DAPK1; conditions: at 1 µM
# [2] = target: Myosin light chain kinase, smooth muscle (Homo sapiens, UniProt Q15746); test: Selectivity interaction (KinomeScan (DiscoverX)) EUB0001049a MYLK; conditions: at 1 µM
# [3] = target: T1, Testis-specific serine/threonine-protein kinase 1 (Homo sapiens) (UniProt Q9BXA7); test: Selectivity interaction (KinomeScan (DiscoverX)) EUB0000666a TSSK1A; conditions: at 10 µM
# T1 sequence (whole entry): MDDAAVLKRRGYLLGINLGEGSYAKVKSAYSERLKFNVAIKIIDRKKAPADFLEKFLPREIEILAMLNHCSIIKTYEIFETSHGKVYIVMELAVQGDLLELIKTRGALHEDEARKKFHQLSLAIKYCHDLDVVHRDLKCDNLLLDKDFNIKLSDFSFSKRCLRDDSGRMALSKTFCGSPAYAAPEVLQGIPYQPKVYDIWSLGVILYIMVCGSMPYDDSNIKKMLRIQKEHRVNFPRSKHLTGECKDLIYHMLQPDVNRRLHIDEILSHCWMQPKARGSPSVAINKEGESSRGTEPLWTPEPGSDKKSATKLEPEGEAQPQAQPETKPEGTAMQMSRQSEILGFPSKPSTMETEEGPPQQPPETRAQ
# [4] = target: T2, Serine/threonine-protein kinase LATS1 (Homo sapiens) (UniProt O95835); conditions: at 10 µM
# T2 sequence (whole entry): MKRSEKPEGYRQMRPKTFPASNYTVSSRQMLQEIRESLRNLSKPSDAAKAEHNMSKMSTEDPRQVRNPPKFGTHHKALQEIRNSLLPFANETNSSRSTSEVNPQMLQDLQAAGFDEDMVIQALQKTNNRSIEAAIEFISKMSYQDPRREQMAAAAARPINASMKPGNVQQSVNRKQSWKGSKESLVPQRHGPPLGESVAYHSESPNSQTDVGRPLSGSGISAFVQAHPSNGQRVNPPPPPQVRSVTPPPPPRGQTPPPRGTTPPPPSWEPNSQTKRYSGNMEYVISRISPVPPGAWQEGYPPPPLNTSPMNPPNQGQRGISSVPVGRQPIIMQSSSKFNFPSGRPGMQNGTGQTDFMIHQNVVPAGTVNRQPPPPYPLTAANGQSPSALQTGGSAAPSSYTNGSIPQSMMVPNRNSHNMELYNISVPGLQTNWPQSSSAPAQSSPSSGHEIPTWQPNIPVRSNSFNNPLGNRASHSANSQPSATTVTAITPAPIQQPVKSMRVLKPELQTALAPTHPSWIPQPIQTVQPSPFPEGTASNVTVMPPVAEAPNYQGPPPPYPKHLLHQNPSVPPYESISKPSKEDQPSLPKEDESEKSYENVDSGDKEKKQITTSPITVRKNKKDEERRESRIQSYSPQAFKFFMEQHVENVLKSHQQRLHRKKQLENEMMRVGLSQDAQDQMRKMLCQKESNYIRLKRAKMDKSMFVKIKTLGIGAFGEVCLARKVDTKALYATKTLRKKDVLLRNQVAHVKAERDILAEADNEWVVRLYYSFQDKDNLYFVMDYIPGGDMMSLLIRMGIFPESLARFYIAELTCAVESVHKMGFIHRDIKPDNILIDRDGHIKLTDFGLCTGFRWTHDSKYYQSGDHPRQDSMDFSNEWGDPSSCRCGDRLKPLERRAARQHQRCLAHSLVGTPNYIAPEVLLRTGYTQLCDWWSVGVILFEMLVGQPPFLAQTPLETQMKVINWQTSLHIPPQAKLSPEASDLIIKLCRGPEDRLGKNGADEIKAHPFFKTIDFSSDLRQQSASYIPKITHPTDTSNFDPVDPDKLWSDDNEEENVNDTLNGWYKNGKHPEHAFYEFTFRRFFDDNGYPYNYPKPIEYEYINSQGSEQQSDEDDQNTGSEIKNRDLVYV
# [5] = target: T3, Serine/threonine-protein kinase TAO3 (Homo sapiens) (UniProt Q9H2K8); test: Selectivity interaction (Ambit KINOMEscan and KiNATiv profiling in Jurkat cells) EUB0000090b TAOK3; assay type: cell-based; conditions: at 1 µM
# T3 sequence (whole entry): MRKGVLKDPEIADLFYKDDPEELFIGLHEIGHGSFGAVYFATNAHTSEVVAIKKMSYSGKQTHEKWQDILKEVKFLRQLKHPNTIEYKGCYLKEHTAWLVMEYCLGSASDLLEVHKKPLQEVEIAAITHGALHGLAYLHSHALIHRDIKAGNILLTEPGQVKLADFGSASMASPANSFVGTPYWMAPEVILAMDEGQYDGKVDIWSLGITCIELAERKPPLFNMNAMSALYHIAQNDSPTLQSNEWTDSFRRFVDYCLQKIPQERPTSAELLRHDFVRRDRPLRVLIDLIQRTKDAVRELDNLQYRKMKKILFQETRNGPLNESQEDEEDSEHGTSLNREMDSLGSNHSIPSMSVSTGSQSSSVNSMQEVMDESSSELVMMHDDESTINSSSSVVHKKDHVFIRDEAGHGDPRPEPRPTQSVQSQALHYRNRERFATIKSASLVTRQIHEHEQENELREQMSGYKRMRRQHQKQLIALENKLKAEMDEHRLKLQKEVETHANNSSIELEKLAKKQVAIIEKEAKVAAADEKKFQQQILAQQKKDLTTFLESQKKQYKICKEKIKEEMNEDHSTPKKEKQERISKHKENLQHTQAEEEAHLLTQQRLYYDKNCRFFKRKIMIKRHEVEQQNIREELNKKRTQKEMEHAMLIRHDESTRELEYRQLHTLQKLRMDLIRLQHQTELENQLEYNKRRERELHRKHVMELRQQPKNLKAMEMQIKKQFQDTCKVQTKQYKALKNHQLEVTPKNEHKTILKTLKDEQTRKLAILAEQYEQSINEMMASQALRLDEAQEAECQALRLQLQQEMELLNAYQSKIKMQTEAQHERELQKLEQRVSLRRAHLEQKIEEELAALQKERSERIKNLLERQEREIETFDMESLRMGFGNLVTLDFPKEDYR
# [6] = target: Serine/threonine-protein kinase SIK3 (Homo sapiens) (UniProt Q9Y2K2); test: Selectivity interaction (ActivX KiNativ screen (ex vivo kinase selectivity in human PBMCs)) EUB0001619a SIK3; assay type: cell-based; conditions: PBMC, at 1 µM
# Serine/threonine-protein kinase SIK3 (Homo sapiens), sequence (Q9Y2K2 whole entry, looked up): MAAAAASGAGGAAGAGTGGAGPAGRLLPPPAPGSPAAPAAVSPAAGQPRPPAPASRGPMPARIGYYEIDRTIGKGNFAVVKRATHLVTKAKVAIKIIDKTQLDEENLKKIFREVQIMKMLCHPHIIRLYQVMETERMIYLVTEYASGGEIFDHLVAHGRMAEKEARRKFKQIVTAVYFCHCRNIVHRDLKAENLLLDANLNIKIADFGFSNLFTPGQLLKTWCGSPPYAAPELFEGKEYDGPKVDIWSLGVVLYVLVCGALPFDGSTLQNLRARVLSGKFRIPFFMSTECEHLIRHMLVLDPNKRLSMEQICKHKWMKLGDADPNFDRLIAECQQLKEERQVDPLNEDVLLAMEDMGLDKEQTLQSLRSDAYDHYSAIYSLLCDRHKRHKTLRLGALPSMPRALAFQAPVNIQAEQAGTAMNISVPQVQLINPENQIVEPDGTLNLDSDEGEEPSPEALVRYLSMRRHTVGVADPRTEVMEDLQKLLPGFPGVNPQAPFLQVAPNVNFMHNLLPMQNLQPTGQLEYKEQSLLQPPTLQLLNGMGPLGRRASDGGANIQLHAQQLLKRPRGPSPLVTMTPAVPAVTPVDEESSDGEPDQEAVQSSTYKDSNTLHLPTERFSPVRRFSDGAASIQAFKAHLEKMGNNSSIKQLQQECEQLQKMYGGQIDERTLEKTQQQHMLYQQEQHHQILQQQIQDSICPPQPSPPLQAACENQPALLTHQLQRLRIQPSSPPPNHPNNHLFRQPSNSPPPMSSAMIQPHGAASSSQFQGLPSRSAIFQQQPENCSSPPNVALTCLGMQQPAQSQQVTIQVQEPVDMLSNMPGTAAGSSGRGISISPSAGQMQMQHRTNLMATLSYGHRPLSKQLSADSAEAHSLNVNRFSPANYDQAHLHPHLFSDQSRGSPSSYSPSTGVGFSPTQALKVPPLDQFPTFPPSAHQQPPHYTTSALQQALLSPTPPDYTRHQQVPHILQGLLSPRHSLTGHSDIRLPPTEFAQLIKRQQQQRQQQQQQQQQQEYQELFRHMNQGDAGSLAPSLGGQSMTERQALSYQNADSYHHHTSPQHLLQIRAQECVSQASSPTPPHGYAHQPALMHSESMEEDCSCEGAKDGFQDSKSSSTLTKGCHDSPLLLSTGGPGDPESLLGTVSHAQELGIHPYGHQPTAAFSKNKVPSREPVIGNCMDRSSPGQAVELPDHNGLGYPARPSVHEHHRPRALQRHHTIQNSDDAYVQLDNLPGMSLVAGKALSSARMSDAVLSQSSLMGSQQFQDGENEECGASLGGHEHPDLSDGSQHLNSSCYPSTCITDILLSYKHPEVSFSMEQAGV
# [7] = target: Mitogen-activated protein kinase 7 (Homo sapiens) (UniProt Q13164); test: Selectivity interaction (KinomeScan (DiscoverX)) EUB0000695a MAPK7; conditions: at 100 nM
# Mitogen-activated protein kinase 7 (Homo sapiens), sequence (Q13164 2-816 limits assumed): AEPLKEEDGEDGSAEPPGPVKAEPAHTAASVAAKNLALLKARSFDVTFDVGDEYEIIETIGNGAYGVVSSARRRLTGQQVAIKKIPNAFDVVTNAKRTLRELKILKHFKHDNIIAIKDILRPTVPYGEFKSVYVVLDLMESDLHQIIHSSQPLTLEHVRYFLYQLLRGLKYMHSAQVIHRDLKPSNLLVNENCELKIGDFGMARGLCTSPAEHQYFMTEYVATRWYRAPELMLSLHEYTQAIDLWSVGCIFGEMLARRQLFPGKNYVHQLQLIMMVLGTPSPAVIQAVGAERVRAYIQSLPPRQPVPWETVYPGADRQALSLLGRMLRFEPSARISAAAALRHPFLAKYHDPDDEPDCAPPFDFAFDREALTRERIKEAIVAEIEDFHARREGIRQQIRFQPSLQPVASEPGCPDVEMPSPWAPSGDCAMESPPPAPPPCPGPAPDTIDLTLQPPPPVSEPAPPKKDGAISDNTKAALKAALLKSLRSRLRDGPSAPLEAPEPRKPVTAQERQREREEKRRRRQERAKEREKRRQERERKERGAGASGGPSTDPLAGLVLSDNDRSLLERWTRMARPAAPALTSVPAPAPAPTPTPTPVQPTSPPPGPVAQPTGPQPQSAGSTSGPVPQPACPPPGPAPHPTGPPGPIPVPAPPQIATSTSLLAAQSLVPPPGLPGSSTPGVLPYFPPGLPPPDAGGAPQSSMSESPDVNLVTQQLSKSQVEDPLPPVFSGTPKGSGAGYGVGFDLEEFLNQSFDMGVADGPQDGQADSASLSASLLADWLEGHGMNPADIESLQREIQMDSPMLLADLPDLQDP
# Death-associated protein kinase 1, sequence (P53355 whole entry, looked up): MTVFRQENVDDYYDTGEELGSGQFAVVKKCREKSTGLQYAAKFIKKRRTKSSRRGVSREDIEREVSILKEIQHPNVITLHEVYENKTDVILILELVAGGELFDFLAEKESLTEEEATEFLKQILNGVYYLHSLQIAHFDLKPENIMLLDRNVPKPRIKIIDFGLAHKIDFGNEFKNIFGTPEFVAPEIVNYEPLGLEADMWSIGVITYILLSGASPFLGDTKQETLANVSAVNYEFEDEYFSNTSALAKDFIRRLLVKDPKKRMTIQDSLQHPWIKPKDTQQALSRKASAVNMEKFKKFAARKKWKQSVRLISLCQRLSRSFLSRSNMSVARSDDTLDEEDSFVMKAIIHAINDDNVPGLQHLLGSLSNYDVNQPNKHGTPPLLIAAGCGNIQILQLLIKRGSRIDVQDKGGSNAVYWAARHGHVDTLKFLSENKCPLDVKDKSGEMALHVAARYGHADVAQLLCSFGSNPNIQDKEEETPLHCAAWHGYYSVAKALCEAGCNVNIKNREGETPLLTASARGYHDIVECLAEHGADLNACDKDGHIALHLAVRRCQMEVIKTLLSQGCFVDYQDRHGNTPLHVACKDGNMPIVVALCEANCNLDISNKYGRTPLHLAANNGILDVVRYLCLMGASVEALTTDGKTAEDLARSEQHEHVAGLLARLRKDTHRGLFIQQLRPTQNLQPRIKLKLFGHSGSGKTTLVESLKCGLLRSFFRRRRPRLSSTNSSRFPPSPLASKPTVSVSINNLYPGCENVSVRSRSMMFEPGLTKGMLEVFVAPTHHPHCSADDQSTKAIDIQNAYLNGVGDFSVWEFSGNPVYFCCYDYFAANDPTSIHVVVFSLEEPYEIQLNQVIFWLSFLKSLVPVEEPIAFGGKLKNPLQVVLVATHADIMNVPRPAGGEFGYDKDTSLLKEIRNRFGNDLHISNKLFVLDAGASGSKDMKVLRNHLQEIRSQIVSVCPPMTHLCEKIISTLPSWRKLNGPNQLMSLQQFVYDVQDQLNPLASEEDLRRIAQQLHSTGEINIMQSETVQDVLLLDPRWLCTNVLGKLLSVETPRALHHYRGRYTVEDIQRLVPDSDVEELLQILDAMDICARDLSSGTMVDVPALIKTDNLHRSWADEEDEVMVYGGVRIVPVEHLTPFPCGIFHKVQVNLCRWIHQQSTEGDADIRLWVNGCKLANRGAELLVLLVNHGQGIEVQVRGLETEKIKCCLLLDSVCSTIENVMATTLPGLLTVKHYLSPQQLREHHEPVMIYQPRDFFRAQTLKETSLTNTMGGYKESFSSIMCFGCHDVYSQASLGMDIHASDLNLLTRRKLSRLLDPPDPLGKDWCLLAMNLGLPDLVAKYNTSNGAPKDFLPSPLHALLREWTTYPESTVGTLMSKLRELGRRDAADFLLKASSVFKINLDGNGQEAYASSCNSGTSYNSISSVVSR
compound,measurement,setting,value
COc1cc(Nc2nc(C)cc(-c3cnn4nc(OC)ccc34)n2)cc(C(F)(F)F)c1,% of control,[1],88%
same,% of control,[2],58%
O=C(NOC[C@H](O)CO)c1ccc(F)c(F)c1Nc1ccc(I)cc1F,% of control,[3],100%
CCN(CC)CCCCNc1ncc2cc(-c3cc(OC)cc(OC)c3)c(NC(=O)NC(C)(C)C)nc2n1,% of control,[4],100%
CN(C)C/C=C/C(=O)Nc1ccc(C(=O)N2CCCC(Nc3ncc(Cl)c(-c4c[nH]c5ccccc45)n3)C2)cc1 (configuration not stated),% of control,[5],97%
N#Cc1cccc(-c2c[nH]c3ncnc(N4CCOCC4)c23)c1,% of inhibition,[6],14%
Cc1cc(F)c(C(=O)Nc2cccc(-c3nncn3C(C)C)n2)cc1-n1cnc(C2CC2)c1,% of control,[7],100%
